Tests used:
[1] = system: Human primary proximal tubule cells (hPTC); test: Phospholipidosis (Red Phospholipidosis reagent) and neutral lipid (Green LipidTox) staining of kidney cells exposed to kidney damaging agents; format: cell-based; conditions: 48 hours
Procedure: Testing the effect of combination therapy on human kidney cells exposed to kidney damaging agents—Human primary proximal tubule cells (hPTC) were seeded at density of 10,000 cells/cm^2 in a black 96-well plate. When the cells reach 80% density, treatments were induced. […] The drugs were induced either alone (controls) or in combination with Empagliflozin (SGLT2i) at 5 μM or Fenofibrate at 20 μM, themselves in combination with Quercetin at 20 μM. All different solutions included 1× Red Phospholipidosis staining reagent as well. hPTC were incubated with the different combinations for 48 hours at 37° C. 5% CO2 […]. After 48 hours, the media were removed and replaced with Green LipidTox stain to stain for neutral lipids in green (diluted at 1:200 in hPTC medium). After 45 minutes of incubation at 37° C., the plate was mounted onto a Zeiss epifluorescent microscope for quantification. Each condition was tested in three biological replicates, and light settings were the same for all the images. Images were analyzed with ImageJ. […]

[2] = system: human proximal tubule cells (hPTCs); conditions: 48 hours

| Compound | prevention of Cyclosporine A, Cisplatin and Gentamicin induced lipotoxicity by co-administration ([1]; Cyclosporine A 1 μM, Cisplatin 1 μM or Gentamicin 1 mM, Empagliflozin 5 μM or Fenofibrate 20 μM) | survival of human proximal tubule cells (hPTCs) ([2]; co-administration with 1 mM gentamicin, Empagliflozin 5 μM or Fenofibrate 20 μM) | induced lipotoxicity of the kidneys (phospholipids and neutral lipids) ([1]; kidney damaging agent alone: Cyclosporine A 1 μM, Cisplatin 1 μM, Gentamicin 1 mM) | cell death ([2]; hPTC, 1 mM gentamicin by itself) |
| --- | --- | --- | --- | --- |
| OC[C@H]1O[C@@H](c2ccc(Cl)c(Cc3ccc(O[C@H]4CCOC4)cc3)c2)[C@H](O)[C@@H](O)[C@@H]1O [empagliflozin, Empagliflozin] | prevented | dramatically increased the survival | – | – |
| Gentamicin | – | – | induced lipotoxicity | induced massive cell death |

— patent US20230201226A1, “COMBINATION THERAPY FOR REDUCING DRUG-INDUCED NEPHROTOXICITY, DYSLIPIDEMIA AND HYPERGLYCEMIA” (Yissum Research Development Company of the Hebrew …, priority 2020, published 2023)
